For this experiment, the target named is Active Human ERK2 (hERK2) (Homo sapiens (Human), UniProt P28482). Put plainly: Active Human ERK2 (hERK2) Activity Assay (IMAP-FP). Type of experiment: biochemical. The method in brief:
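Reaction contains 0.5 nM activated hERK2, 900 nM unlabeled plus 80 nM labeled peptide and 30 μM ATP, run 60 min. Quenched with IMAP binding beads in buffer with 24 mM NaCl; fluorescence polarization read after 60 min binding equilibration.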

[1] abbreviates: phosphorylated active hERK2, 30 μM ATP, average, read-out: ERK 2 Human average IC50.
Where [2] appears, read: read-out: AERK2 IC50 (Active human ERK2 Activity Assay).

Structures can show the parent of a compound that is named as a salt. Where two headings read alike, the source gives them in different places.

Sequence of Active Human ERK2 (hERK2) (P28482 whole entry): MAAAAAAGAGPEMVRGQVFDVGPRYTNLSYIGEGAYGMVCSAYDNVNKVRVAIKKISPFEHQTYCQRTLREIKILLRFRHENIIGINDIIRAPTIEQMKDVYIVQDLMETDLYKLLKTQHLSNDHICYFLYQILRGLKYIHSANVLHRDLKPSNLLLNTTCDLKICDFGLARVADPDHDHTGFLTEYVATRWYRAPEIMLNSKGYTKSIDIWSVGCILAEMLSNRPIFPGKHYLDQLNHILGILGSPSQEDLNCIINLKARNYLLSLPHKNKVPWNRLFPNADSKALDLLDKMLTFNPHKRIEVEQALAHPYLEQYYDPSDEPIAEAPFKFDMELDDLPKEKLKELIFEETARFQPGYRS

A word on the IC50: it is the concentration at which inhibition is half-maximal. For the compound `Cc1cc(-c2n[nH]c3cc(NC(=O)NCC(F)(F)CO)ncc23)ccn1` [Example 190], the half-maximal inhibitory concentration (IC50) under setting [1] was 3.81 nM.

For `Cc1cc(-c2n[nH]c3cc(NC(=O)NCC4CCC4)ncc23)ccn1` [Example 574], the IC50 under setting [1] is 1.41 nM.

For the compound `Cc1cc(-c2n[nH]c3cc(NC(=O)N[C@@H]4CN(C)C[C@H]4C)ncc23)ccn1` [Example 206], under setting [1], the IC50 was 3.59 nM.

As to `Cc1cc(-c2n[nH]c3cc(NC(=O)NCc4cn[nH]c4)ncc23)ccn1` [Example 420], under setting [1], the concentration for half-maximal inhibition (IC50) was 2.55 nM.

For the compound `CC1CC(c2n[nH]c3cc(NC(=O)N[C@H](C)c4ccccc4)ncc23)=NO1` (stereo partly shown) [Example 687], the 50% inhibitory concentration (IC50) under setting [1] was determined as 56 nM.

`Cc1cc(-c2n[nH]c3cc(NC(=O)NC(CO)C(F)(F)F)ncc23)ccn1` (stereo not shown) [Example 194]: the IC50 under setting [1] turned out to be 13.5 nM.

Take `C[C@@H](NC(=O)Nc1cc2[nH]nc(C3CC3)c2cn1)c1ccccn1` [Example 152]: the half-inhibitory concentration (IC50) under setting [1] came to 116 nM.

As to `C[C@@H](NC(=O)Nc1cc2[nH]nc(-c3ccn(C4COC4)n3)c2cn1)c1ccccc1` [Example 638], the half-maximal inhibitory concentration (IC50) under setting [1] turned out to be 8.99 nM.

Regarding `COc1ncc(-c2n[nH]c3cc(NC(=O)N[C@@H]4CCCOc5ccccc54)ncc23)cn1` [Example 312], the IC50 under setting [1] amounted to 0.751 nM.

Turning to `C[C@@H](NC(=O)Nc1cc2[nH]nc(-c3cnn(C)c3)c2cn1)c1ccc(F)cc1` [Example 259], under setting [1], the half-maximal inhibitory concentration (IC50) was 0.469 nM.

For `C[C@@H](NC(=O)Nc1cc2[nH]nc(C(=O)N3CC(=O)N(C)C3)c2cn1)c1ccccc1` [Example 120], the IC50 under setting [1] was 60.4 nM.

Consider `C[C@@H](NC(=O)Nc1cc2[nH]nc(-c3cn[nH]c3)c2cn1)c1ccc(F)c(Cl)c1` [Example 74, 1-[(1R)-1-(3-chloro-4-fluorophenyl)ethyl]-3-[3-(1H-pyrazol-4-yl)-1H-pyrazolo[4,3-c]pyridin-6-yl]urea], for which the 50% inhibitory concentration (IC50) under setting [1] is 0.603 nM and the 50% inhibitory concentration (IC50) under setting [2] lay in the range of 0.2 to 1.7 nM.

On to `C[C@@H](NC(=O)Nc1cc2[nH]nc(-c3ccc(-n4nccn4)cc3)c2cn1)c1ccc(F)cc1` [Example 247], for which the IC50 under setting [1] is 45 nM.

Take `N#Cc1cccc(-c2n[nH]c3cc(NC(=O)NCc4ccc(F)cc4)ncc23)c1` [Example 673]: the IC50 under setting [1] was determined as 5.41 nM.

Regarding `Cc1cc(-c2n[nH]c3cc(NC(=O)NCc4c(F)cccc4Cl)ncc23)ccn1` [Example 440], the half-inhibitory concentration (IC50) under setting [1] worked out at 0.469 nM.

Consider `Cc1cc(-c2n[nH]c3cc(NC(=O)N[C@H](C)c4ccc(F)c(Cl)c4)ncc23)ccn1` [Example 69, 1-[(1R)-1-(3-chloro-4-fluorophenyl)ethyl]-3-[3-(2-methylpyridin-4-yl)-1H-pyrazolo[4,3-c]pyridin-6-yl]urea], for which the half-maximal inhibitory concentration (IC50) under setting [1] worked out at 0.432 nM and the IC50 under setting [2] lay in the range of 0.2 to 1.7 nM.

As for `Cc1cc(-c2n[nH]c3cc(NC(=O)NCc4c[nH]nn4)ncc23)ccn1` [Example 431], the half-inhibitory concentration (IC50) under setting [1] turned out to be 2.52 nM.

Turning to `C[C@@H](NC(=O)Nc1cc2[nH]nc(-c3cncnc3)c2cn1)c1ccc(F)cc1` [Example 671], the half-maximal inhibitory concentration (IC50) under setting [1] was 2.33 nM.

As for `COC[C@@H](NC(=O)Nc1cc2[nH]nc(C3CC3)c2cn1)c1ccccc1` [Example 160], the IC50 under setting [1] is 1.38 nM.

Regarding `CO[C@@H]1CN(C)C[C@H]1NC(=O)Nc1cc2[nH]nc(-c3ccc(F)cc3)c2cn1` [Example 318], the IC50 under setting [1] was determined as 30.2 nM.

As for `CCNC(=O)c1n[nH]c2cc(NC(=O)N[C@H](C)c3ccccc3)ncc12` [Example 138], under setting [1], the half-inhibitory concentration (IC50) turned out to be 5.28 nM.

As for `COC[C@@H](NC(=O)Nc1cc2[nH]nc(-c3ccnc(C)c3)c2cn1)c1ccccn1` [Example 416], the IC50 under setting [1] is 0.78 nM.

Regarding `Cc1cc(-c2n[nH]c3cc(NC(=O)NCc4ccc(Cl)cc4Cl)ncc23)ccn1` [Example 443], under setting [1], the half-inhibitory concentration (IC50) came to 11.8 nM.

Regarding `Cc1cc(-c2n[nH]c3cc(NC(=O)N[C@@H]4CCOc5cc(C#N)ccc54)ncc23)ccn1` [Example 266], under setting [1], the IC50 stood at 70.6 nM.

Consider `Cc1cc(-c2n[nH]c3cc(NC(=O)NCC(O)C(F)(F)F)ncc23)ccn1` (stereo not shown) [Example 195], for which the IC50 under setting [1] worked out at 8.06 nM.

For the compound `C[C@@H](NC(=O)Nc1cc2[nH]nc(C3=CNCN=C3)c2cn1)c1ccc(F)cc1` [Example 663], under setting [1], the IC50 turned out to be 9.13 nM.

As to `Cc1cc(-c2n[nH]c3cc(NC(=O)NCC4COc5ccccc5O4)ncc23)ccn1` (stereo not shown) [Example 459], under setting [1], the IC50 is 2.74 nM.

On to `C[C@@H](NC(=O)Nc1cc2[nH]nc(-c3ccc(C#N)cc3)c2cn1)c1ccc(F)cc1` [Example 83, 1-[3-(4-cyanophenyl)-1H-pyrazolo[4,3-c]pyridin-6-yl]-3-[(1R)-1-(4-fluorophenyl)ethyl]urea], for which the IC50 under setting [1] came out at 3.28 nM.

Regarding `CCNC(=O)[C@H]1C[C@@H]1c1n[nH]c2cc(NC(=O)N[C@H](COC)c3ccccc3)ncc12` [Example 170, (1S,2S)—N-ethyl-2-(6-(3-((S)-2-methoxy-1-phenylethyl)ureido)-1H-pyrazolo[4,3-c]pyridin-3-yl)cyclopropanecarboxamide], under setting [1], the concentration for half-maximal inhibition (IC50) was determined as 0.715 nM.

On to `Cc1cc(-c2n[nH]c3cc(NC(=O)N[C@H](C)c4cc(Cl)ccn4)ncc23)ccn1` [Example 229], for which the concentration for half-maximal inhibition (IC50) under setting [1] was determined as 1.06 nM.

Turning to `O=C(NCc1ncco1)Nc1cc2[nH]nc(-c3ccc(F)cc3)c2cn1` [Example 221], the IC50 under setting [1] is 4.49 nM.

Take `Cc1cc(-c2n[nH]c3cc(NC(=O)NCc4nccc5ccccc45)ncc23)ccn1` [Example 390]: the concentration for half-maximal inhibition (IC50) under setting [1] turned out to be 2.76 nM.

As for `COC[C@@H](NC(=O)Nc1cc2[nH]nc(-c3cc(C)on3)c2cn1)c1ccccc1` [Example 683], the IC50 under setting [1] worked out at 4.36 nM.

For `Cc1cc(-c2n[nH]c3cc(NC(=S)NCc4ccccc4)ncc23)ccn1` [Example 94, 6-[(benzylcarbamothioyl)amino]-3-(2-methylpyridin-4-yl)-1H-pyrazolo[4,3-c]pyridin-5-ium trifluoroacetate], the concentration for half-maximal inhibition (IC50) under setting [1] was determined as 11.9 nM.

For the compound `Cc1cc(-c2n[nH]c3cc(NC(=O)NCc4ccccn4)ncc23)ccn1` [Example 479], under setting [1], the half-maximal inhibitory concentration (IC50) is 3.02 nM.

For the compound `Cc1cc(-c2n[nH]c3cc(NC(=O)NC4CCCOc5ccccc54)ncc23)ccn1` (stereo not shown) [Example 274], under setting [1], the IC50 is 0.494 nM.

Consider `Cc1cc(-c2n[nH]c3cc(NC(=O)N[C@@H](C)c4ccc(Cl)c(C)c4)ncc23)ccn1` [Example 340], for which the half-maximal inhibitory concentration (IC50) under setting [1] was determined as 723 nM.

With `Cc1cc(-c2n[nH]c3cc(NC(=O)NC4CCCC(Oc5cccc(F)c5)C4)ncc23)ccn1` (stereo not shown) [Example 656], the IC50 under setting [1] worked out at 5.06 nM.

Regarding `COCc1n[nH]c2cc(NC(=O)N[C@H](C)c3ccccc3)ncc12` [Example 599], the IC50 under setting [1] stood at 7.68 nM.

As to `CNC(=O)[C@H]1CC1c1n[nH]c2cc(NC(=O)N[C@H](COC)c3ccccc3)ncc12` (stereo partly shown) [Example 171], the IC50 under setting [1] was 0.97 nM.

`Cc1cc(-c2n[nH]c3cc(NC(=O)NCc4ccc(F)cc4)ncc23)ccn1` [Example 273]: under setting [1], the 50% inhibitory concentration (IC50) was found to be 0.945 nM.

Take `Cc1cc(-c2n[nH]c3cc(NC(=O)NCC4(Nc5ccccc5)CCOCC4)ncc23)ccn1` [Example 398]: the IC50 under setting [1] was found to be 1.13 nM.

As to `COC[C@@H](NC(=O)Nc1cc2[nH]nc(C3CC3)c2cn1)c1cc(F)ccn1` [Example 168], under setting [1], the IC50 turned out to be 117 nM.

As to `Cc1cc(-c2n[nH]c3cc(NC(=O)NCc4ccns4)ncc23)ccn1` [Example 429], the IC50 under setting [1] came out at 1.12 nM.

In the case of `O=C(NCC1CC1)Nc1cc2[nH]nc(C3CC3)c2cn1` [Example 148], the concentration for half-maximal inhibition (IC50) under setting [1] worked out at 84.3 nM.

For `Cc1cc(-c2n[nH]c3cc(NC(=O)NCc4ccc(C#N)cc4)ncc23)ccn1` [Example 445], the IC50 under setting [1] is 3.73 nM.

As to `Cc1cc(-c2n[nH]c3cc(NC(=O)NCc4ncn[nH]4)ncc23)ccn1` [Example 422], the IC50 under setting [1] was found to be 5.42 nM.

Take `CC[C@H](CO)NC(=O)Nc1cc2[nH]nc(-c3ccnc(C)c3)c2cn1` [Example 204]: the IC50 under setting [1] was 24.1 nM.

As to `O=C(NCc1ccccc1)Nc1cc2[nH]nc(C3CC3)c2cn1` [Example 142], under setting [1], the 50% inhibitory concentration (IC50) came to 17.4 nM.

In the case of `Cc1cc(-c2n[nH]c3cc(NC(=O)NCC4CNC(=O)O4)ncc23)ccn1` (stereo not shown) [Example 466], the half-inhibitory concentration (IC50) under setting [1] worked out at 2.81 nM.

As for `COCCNC(=O)Nc1cc2[nH]nc(-c3ccc(C#N)cc3)c2cn1` [Example 624, 1-[3-(4-Cyanophenyl)-1H-pyrazolo[4,3-c]pyridin-6-yl]-3-(2-methoxyethyl)urea], the IC50 under setting [1] is 4.38 nM.

In the case of `C[C@@H](NC(=O)Nc1cc2[nH]nc(C(=O)NCC(F)(F)CN3CCCC3)c2cn1)c1ccccc1` [Example 128], the 50% inhibitory concentration (IC50) under setting [1] is 19 nM.

With `Cc1cc(-c2n[nH]c3cc(NC(=O)NC(CCN4CCCC4)c4ccncc4)ncc23)ccn1` (stereo not shown) [Example 378], the 50% inhibitory concentration (IC50) under setting [1] is 55.6 nM.

Regarding `Cc1cc(-c2n[nH]c3cc(NC(=O)NCc4nncs4)ncc23)ccn1` [Example 438], the IC50 under setting [1] turned out to be 6.6 nM.

`Cc1cc(-c2n[nH]c3cc(NC(=O)NCCO)ncc23)ccn1` [Example 573]: under setting [1], the half-maximal inhibitory concentration (IC50) worked out at 7.22 nM.

For the compound `Cc1cc(-c2n[nH]c3cc(NC(=O)N[C@@H](c4ccccc4)[C@H]4CCCO4)ncc23)ccn1` [Example 553], the half-inhibitory concentration (IC50) under setting [1] came to 0.26 nM.

In the case of `COc1cc(-c2n[nH]c3cc(NC(=O)N[C@H](C)c4ccc(F)cc4)ncc23)cc(C(F)(F)F)n1` [Example 257], the half-inhibitory concentration (IC50) under setting [1] came to 379 nM.

Turning to `Cc1ccc(C2(NC(=O)Nc3cc4[nH]nc(-c5ccnc(C)c5)c4cn3)CC2)cc1` [Example 342], the IC50 under setting [1] is 40.9 nM.

Consider `O=C(Nc1cc2[nH]nc(-c3ccncc3)c2cn1)N[C@H](CO)c1ccccc1` [Example 546], for which the half-inhibitory concentration (IC50) under setting [1] turned out to be 0.358 nM.

`Cc1cc(-c2n[nH]c3cc(NC(=O)NC4CCCOc5ccccc54)ncc23)no1` (stereo not shown) [Example 689]: the 50% inhibitory concentration (IC50) under setting [1] worked out at 5.15 nM.

Take `Cc1cc(-c2n[nH]c3cc(NC(=O)NCC4(O)CCN(C)CC4)ncc23)ccn1` [Example 388]: under setting [1], the IC50 came to 6.66 nM.

Turning to `Cc1cc(-c2n[nH]c3cc(NC(=O)NCc4cnsc4)ncc23)ccn1` [Example 423], under setting [1], the concentration for half-maximal inhibition (IC50) came to 0.594 nM.

Take `Cc1cc(-c2n[nH]c3cc(NC(=O)N[C@H](c4ccccc4)[C@H]4CCCO4)ncc23)ccn1` [Example 551]: under setting [1], the IC50 was determined as 41.2 nM.

As to `O=C(NCc1ccccc1)Nc1cc2[nH]nc(C3CCC3)c2cn1` [Example 147], under setting [1], the IC50 amounted to 11.2 nM.

With `Cc1cc(-c2n[nH]c3cc(NC(=O)NC4(c5ccc(F)cc5)CC4)ncc23)ccn1` [Example 343], under setting [1], the concentration for half-maximal inhibition (IC50) was 18.7 nM.

Values taken from patent publication US9023865B2, “Compounds that are ERK inhibitors” (Merck Sharp & Dohme Corp., priority 2011, dated 2015).
